Measurements: article PMC8574161 (Journal of chemical information and modeling, 2021)
“And” between values parts separate entries of the source, which are not always exact repeats. Identical values can stand only once. Counter-ions that a name gives are not always drawn. Like-named read-outs stand apart in the source and are kept apart here.

What was measured:
[1] = tested on: SARS-CoV-2; conditions: Calu-3 cells; cited from earlier work
[2] = tested on: SARS-CoV-2; conditions: Vero cells; cited from earlier work
[3] = tested on: SARS-CoV-2; conditions: compared with CC50
[4] = tested on: SARS-CoV-2; test: microbe, parasite or virus in culture
[5] = in vitro; conditions: human
[6] = tested on: SARS-CoV-2; conditions: Vero E6 cells; cited from earlier work
[7] = tested on: SARS-CoV-2; test: Vero 76 reduction of virus-induced cytopathic effect; format: cell-based; conditions: Severe acute respiratory syndrome coronavirus 2, Vero 76, Vero 76
[8] = target: SARS-CoV-2 Spike RBD protein (Severe acute respiratory syndrome coronavirus 2, UniProt P0DTC2); test: Microscale thermophoresis binding to Spike RBD; conditions: MST, 5 nM labeled Spike RBD, 23°C, quadruplicate
[9] = tested on: SARS-CoV-2 (isolate USA WA1/2020); test: microbe, parasite or virus in culture; format: cell-based; conditions: Severe acute respiratory syndrome coronavirus 2, Calu-3, 48 h
[10] = Vero 76 cytotoxicity in uninfected toxicity cultures; conditions: African green monkey, CC50, Vero 76
[11] = Calu3 toxicity; format: cell-based; conditions: human, Calu3 cells infected with SARS-CoV-2
[12] = Severe acute respiratory syndrome coronavirus 2, Caco-2, 72 h
[13] = Neutral Red (Cytopathic effect/Toxicity)
[14] = Visual (Cytopathic effect/Toxicity)

**Q.** For `C[C@H]1[C@H](OC(=O)CCC(=O)O)O[C@@H]2O[C@@]3(C)CC[C@H]4[C@H](C)CC[C@@H]1[C@@]24OO3` [Artesunate], which IC50 [1] is on record?
**A.** The IC50 was 1.76 µM.

**Q.** With `Cc1cn(-c2cc(NC(=O)c3ccc(C)c(Nc4nccc(-c5cccnc5)n4)c3)cc(C(F)(F)F)c2)cn1` [Nilotinib] as the molecule, how does the potency [2] read?
**A.** The potency was “sub-micromolar”.

**Q.** Which “activity against SARS-CoV-2 in Caco-2 cells (in words)” value [3] does the source give for `COc1cc2c(cc1OC)C1CC(=O)C(CC(C)C)CN1CC2` (centres unmarked) [Tetrabenazine] here?
**A.** The value was “inactive”.

**Q.** What about the EC90 ([4]; Severe acute respiratory syndrome coronavirus 2, Caco-2) of the same molecule?
**A.** The EC90 was over 100 µM.

**Q.** And the CC50 at 3 days [5]?
**A.** Its CC50 at 3 days is over 100 µM.

**Q.** Which EC90 [4, 12] does the source give for `C=C[C@]1(C)C[C@@H](OC(=O)CSCCN(CC)CC)[C@]2(C)[C@H](C)CC[C@]3(CCC(=O)[C@H]32)[C@@H](C)[C@@H]1O` [Tiamulin fumarate] here?
**A.** The EC90 was 65 µM.

**Q.** And the CC50 at 3 days [5]?
**A.** The CC50 at 3 days was over 100 µM.

**Q.** Which “activity against SARS-CoV-2 in Caco-2 cells (in words)” value [3] does the source give for `CCCC1O[C@@H]2C[C@H]3[C@@H]4CCC5=CC(=O)C=C[C@]5(C)[C@H]4[C@@H](O)C[C@]3(C)[C@]2(C(=O)CO)O1` (some centres unmarked) [Budesonide] here?
**A.** The value was “no activity”.

**Q.** What about the EC90 [4, 12] of the same molecule?
**A.** Its EC90 is over 10 µM.

**Q.** And the CC50 at 3 days [5]?
**A.** Its CC50 at 3 days is 10 µM.

**Q.** Which EC50 [6] does the source give for `CCCCN(CCCC)CC(O)c1cc(Cl)cc2c1-c1ccc(Cl)cc1/C2=C/c1ccc(Cl)cc1` (centres unmarked) [Lumefantrine] here?
**A.** Its EC50 is 23.2 µM.

**Q.** And the EC50 [7, 13]?
**A.** Its EC50 is 54 µM.

**Q.** What about the EC50 [7, 14] of the same molecule?
**A.** Its EC50 is over 60 µM.

**Q.** What about the Kd [8] of the same molecule?
**A.** Its Kd is 0.259 µM and ~0.25 µM.

**Q.** What about the IC50 [9] of the same molecule?
**A.** Its IC50 is over 20 µM.

**Q.** And the CC50 [10, 13]?
**A.** Its CC50 is 177 µM.

**Q.** What about the CC50 [10, 14] of the same molecule?
**A.** The CC50 was over 60 µM.

**Q.** And the EC90 [4, 12]?
**A.** Its EC90 is 10 µM.

**Q.** And the CC50 at 48 h [11]?
**A.** Its CC50 at 48 h is over 20 µM.

**Q.** And the CC50 at 3 days [5]?
**A.** Its CC50 at 3 days is 10 µM.
